Results reported in paper PMC6199744, “Development of Chemical Proteomics for the Folateome and Analysis of the Kinetoplastid Folateome” (ACS Infectious Diseases, 2018).
Where two headings read alike, the source gives them in different places.

Columns and labels:
Assay type in all cases: binding
[1] = target: T1, HeLa cell extract proteins (Homo sapiens, UniProt Q9H9T3)
T1 construct: endogenous in cells; host or cells: HeLa cell extract
T1 sequence (Q9H9T3 1-547): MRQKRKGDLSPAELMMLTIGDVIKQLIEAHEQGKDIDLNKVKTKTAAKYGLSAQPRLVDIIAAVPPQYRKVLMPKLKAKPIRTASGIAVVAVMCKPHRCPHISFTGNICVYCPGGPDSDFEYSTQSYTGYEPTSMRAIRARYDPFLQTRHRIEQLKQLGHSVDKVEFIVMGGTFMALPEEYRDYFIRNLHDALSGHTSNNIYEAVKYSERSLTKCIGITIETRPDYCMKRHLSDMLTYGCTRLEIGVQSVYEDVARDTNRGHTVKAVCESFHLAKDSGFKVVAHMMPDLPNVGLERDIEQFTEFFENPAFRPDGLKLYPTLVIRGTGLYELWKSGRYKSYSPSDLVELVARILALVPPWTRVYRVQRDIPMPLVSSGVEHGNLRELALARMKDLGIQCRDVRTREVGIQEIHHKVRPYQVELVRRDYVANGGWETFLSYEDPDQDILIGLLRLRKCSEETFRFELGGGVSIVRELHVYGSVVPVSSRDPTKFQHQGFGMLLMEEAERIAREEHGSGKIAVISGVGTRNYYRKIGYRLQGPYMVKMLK

[2] = target: T2, HeLa cell extract proteins (Homo sapiens, UniProt O75718)
T2 construct: endogenous in cells; host or cells: HeLa cell extract
T2 sequence (O75718 27-401): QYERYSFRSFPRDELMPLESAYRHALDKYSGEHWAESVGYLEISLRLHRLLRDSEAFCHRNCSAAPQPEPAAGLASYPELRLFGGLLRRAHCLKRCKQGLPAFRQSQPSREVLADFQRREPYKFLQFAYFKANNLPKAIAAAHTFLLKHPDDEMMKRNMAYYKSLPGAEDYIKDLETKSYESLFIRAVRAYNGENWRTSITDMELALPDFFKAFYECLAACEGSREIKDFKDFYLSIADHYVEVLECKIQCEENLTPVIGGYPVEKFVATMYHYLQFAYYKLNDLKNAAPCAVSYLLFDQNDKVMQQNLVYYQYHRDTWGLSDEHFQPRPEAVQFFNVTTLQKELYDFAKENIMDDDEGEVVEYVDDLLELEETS

[3] = target: T3, HeLa cell extract proteins (Homo sapiens, UniProt P11498)
T3 construct: endogenous in cells; host or cells: HeLa cell extract
T3 sequence (P11498 21-1178): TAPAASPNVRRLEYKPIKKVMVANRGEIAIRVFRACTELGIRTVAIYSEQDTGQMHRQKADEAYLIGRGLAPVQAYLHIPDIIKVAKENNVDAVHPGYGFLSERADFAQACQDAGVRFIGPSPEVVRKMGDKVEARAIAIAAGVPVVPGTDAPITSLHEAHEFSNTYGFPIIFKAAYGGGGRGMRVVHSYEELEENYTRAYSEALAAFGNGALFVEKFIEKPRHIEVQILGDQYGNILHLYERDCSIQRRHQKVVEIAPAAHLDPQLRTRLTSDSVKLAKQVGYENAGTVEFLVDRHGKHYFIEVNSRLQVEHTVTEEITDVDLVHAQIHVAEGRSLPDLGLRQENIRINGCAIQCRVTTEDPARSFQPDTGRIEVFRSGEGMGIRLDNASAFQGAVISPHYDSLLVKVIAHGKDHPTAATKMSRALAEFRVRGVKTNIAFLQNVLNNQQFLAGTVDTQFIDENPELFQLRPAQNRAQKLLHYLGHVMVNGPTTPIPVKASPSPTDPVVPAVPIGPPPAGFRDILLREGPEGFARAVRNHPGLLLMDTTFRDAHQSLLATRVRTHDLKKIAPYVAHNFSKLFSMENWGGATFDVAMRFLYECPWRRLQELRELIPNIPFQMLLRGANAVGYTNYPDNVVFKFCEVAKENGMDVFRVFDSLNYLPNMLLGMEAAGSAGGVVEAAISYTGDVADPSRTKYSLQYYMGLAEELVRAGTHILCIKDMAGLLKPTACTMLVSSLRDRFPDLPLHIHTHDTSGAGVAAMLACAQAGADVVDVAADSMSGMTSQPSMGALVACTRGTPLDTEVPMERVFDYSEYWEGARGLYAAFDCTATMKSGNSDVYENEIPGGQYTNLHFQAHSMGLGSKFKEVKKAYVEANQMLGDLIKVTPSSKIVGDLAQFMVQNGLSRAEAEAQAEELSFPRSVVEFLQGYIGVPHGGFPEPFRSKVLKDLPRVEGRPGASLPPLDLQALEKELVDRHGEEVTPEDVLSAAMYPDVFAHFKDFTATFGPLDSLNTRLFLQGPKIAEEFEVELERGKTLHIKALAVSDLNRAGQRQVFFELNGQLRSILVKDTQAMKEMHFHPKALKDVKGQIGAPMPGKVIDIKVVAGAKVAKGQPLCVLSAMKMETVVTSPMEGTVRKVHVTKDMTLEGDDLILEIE

[4] = target: T4, HeLa cell extract proteins (Homo sapiens, UniProt P61081); conditions: protein UBE2M; HeLa
T4 construct: endogenous in cells; host or cells: HeLa cell extract
T4 sequence (P61081 1-183): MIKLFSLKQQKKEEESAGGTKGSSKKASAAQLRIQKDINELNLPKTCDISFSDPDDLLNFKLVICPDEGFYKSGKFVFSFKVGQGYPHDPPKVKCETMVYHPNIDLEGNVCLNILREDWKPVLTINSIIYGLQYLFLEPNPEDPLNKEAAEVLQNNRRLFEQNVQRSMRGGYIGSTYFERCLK

[5] = target: T5, HeLa cell extract proteins (Homo sapiens, UniProt P09669); conditions: captured protein COX6C; HeLa
T5 construct: endogenous in cells; host or cells: HeLa cell extract
T5 sequence (P09669 whole entry): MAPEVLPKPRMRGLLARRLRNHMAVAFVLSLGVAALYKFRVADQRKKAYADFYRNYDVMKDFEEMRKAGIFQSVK

[6] = target: T6, HeLa cell extract proteins (Homo sapiens, UniProt O75323); conditions: protein GBAS; HeLa
T6 construct: endogenous in cells; host or cells: HeLa cell extract
T6 sequence (O75323 24-286): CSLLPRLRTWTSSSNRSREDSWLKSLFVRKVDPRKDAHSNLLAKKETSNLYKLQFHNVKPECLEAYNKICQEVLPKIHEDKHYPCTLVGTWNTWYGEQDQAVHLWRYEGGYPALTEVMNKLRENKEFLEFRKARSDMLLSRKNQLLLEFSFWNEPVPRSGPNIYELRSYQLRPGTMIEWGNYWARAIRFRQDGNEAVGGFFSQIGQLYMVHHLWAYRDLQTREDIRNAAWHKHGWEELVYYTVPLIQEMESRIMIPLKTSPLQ

SMILES | fold changes relative to vehicle control ([1]; protein ELP3, HeLa) | fold changes relative to vehicle control ([2]; protein CRTAP, HeLa) | fold changes relative to vehicle control ([3]; protein PC, HeLa) | fold changes relative to vehicle control [4] | fold changes relative to vehicle control [5] | fold changes relative to vehicle control [6] | also measured
Nc1nc2c(c(=O)[nH]1)N(C=O)C(CNc1ccc(C(=O)N[C@@H](CCC(=O)O)C(=O)O)cc1)CN2 (stereo partly drawn) [LEU, leucovorin] | 0.88 | 0.85 | 0.8 | – | – | – | –
Nc1nc2[nH]cc(CCc3ccc(C(=O)N[C@@H](CCC(=O)O)C(=O)O)cc3)c2c(=O)[nH]1 [PTX, pemetrexed] | – | – | – | – | – | – | fold changes relative to vehicle control [1]: 0.72; fold changes relative to vehicle control [2]: 0.82; fold changes relative to vehicle control [3]: 0.69
CCCCCCOc1ccc(Cc2cnc(N)nc2N)cc1 [compound 1] | – | – | – | 1.2 | 0.88 | 1.26 | –
CCCCCCOc1cccc(Cc2cnc(N)nc2N)c1 [compound 2] | – | – | – | 1.71 | 0.94 | 1.29 | –
Nc1nc2cccc(-c3ccccc3)c2n1Cc1ccc(Cl)c(Cl)c1 [compound 3] | – | – | – | 0.83 | 1.07 | 1.01 | –
NCCOCCOCC(=O)Nc1nc2ncc(CNc3ccc(C(=O)NC(CCC(=O)O)C(=O)O)cc3)nc2c(=O)[nH]1 (stereo not drawn) [compound 6] | 0.91 | 0.86 | 0.97 | – | – | – | –
NCCCNc1ccc(C(=O)NC(CCC(=O)O)C(=O)O)cc1 (stereo not drawn) [compound 7] | 0.9 | 0.91 | 1.1 | – | – | – | –
